Like-named read-outs stand apart in the source and are kept apart here.
Key:
[1] = target: T1, human PHD2184-418 (Homo sapiens, UniProt Q9GZT9); assay: PHD2 inhibitory test (fluorescence polarization, FITC-labeled HIF-1α556-574); details: human PHD2 binding inhibitory activity; 2 μM 2-oxoglutarate, 37° C., 60 minutes
T1 construct: containing amino acid residues 184 to 418 of the protein represented by CAC42509; histidine tag (N); made in house; host or cells: E. coli BL21 (DE3), pET-30a(+) vector
T1 sequence (Q9GZT9 184-418): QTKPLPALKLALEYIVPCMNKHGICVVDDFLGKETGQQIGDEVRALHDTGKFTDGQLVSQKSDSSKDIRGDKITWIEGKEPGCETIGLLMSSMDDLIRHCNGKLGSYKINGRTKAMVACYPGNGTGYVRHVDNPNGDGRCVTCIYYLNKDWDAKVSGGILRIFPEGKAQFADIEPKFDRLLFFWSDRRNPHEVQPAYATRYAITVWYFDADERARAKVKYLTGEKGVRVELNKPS
Protocol: Test Example 1 PHD2 Inhibitory Test
(1) Expression and preparation of human PHD2184-418
Human PHD2184-418 containing amino acid residues 184 to 418 of the protein represented by CAC42509 (GenBank accession ID) was expressed and prepared by the following method.
An expression construct of human PHD2184-418 containing N-terminal histidine tag was introduced into pET-30α (+) vector, and the sequence was confirmed. This vector was introduced into BL21 (DE3) strain and cultured at 37° C. in LB medium containing antibiotics. After culturing, a cell lysis solution was added to the cells, and then the cells were disrupted and suspended by sonication. The disrupted suspension was centrifuged and the supernatant was purified by Ni column to give human PHD2184-418.
Human HIF-1α556-574 (FITC-labeled HIF-1α556-574), containing FITC-Ahx at the N-terminal of HIF-1α556-574 containing amino acid residues 556 to 574 (partial peptide) of human HIF-1α was used as a substrate. Using FITC-labeled HIF-1α556-574, the competitive inhibition between 2-oxoglutarate and the test compound (PHD inhibitor) was evaluated based on the change in fluorescence polarization of FITC-labeled HIF-1α556-574 by the following method.
An enzyme (human PHD2184-418) and the substrate were diluted with an assay buffer (pH 7.4) containing 10 mM HEPES, 150 mM NaCl, 10 μM MnCl2-4H2O, 2 μM 2-oxoglutarate and 0.05% Tween-2θ. […]

[2] = system: TNBS induced colitis model rat; assay: Therapeutic effect in colitis model: suppression of intestinal permeability (FITC); assay type: in vivo; details: 3 mg/kg orally once a day for 3 days, serum FITC
Protocol: Test Example 2 Therapeutic Effect in Colitis Model
(1) TNBS Induced Colitis Model Rat
Thus, the suppressive effect on the intestinal permeability based on oral administration of the test compound was evaluated as an indicator of medicinal efficacy.
SD male rats: 8-week-old SLC (Japan SLC) were used. Under pentobarbital anesthesia, 300 μL of TNBS (28 mg/mL) which was prepared by 50% ethanol was administered at a point 8 cm from the anus in the large intestine to cause inflammation. To the solvent-treated group was administrated 300 μL of 50% ethanol. Animals were fasted for 48 hours prior to administration of TNBS. The test compound (3 mg/kg) prepared by 0.05% methylcellulose solution was orally administered once a day from the next day, and it was administered for a total of 3 days. After administering for 3 days, 50 mg/kg FITC was orally administered 4 hours after the administration of the test compound. Blood samples were collected from jugular vein under isoflurane anesthesia after 4 hours. The serum was centrifuged and fluorescence intensity was detected by PHERAstar FSX (BMG Labtech) to measure the concentration of FITC permeating into circulating blood through the mesentery. The suppressive rate on the intestinal permeability of the test compound was calculated based on the value of the test substance-free group as 0 and the value of the TNBS-untreated group as 100.

[3] = Rat PK study: concentration of compounds in large intestine tissue and plasma; assay type: in vivo; details: male, SD, 3 mg/kg oral
Protocol: Test Example 3 Concentration of Compounds in Large Intestine Tissue
The test compound (3 mg/kg/5 mL) prepared with 0.05% methylcellulose was orally administered to non-fasted rats (SD, 8-week-old, male, Japan SLC). Blood samples were collected from jugular vein at 0.25, 0.5, 1, 2, 4, 6 and 8 hours after the administration. Laparotomy was performed under isoflurane anesthesia and large intestine was isolated. The collected distal large intestine (about 5 cm) was cut open, and then the large intestine extracted was washed with saline on a dish. After washing, the large intestine was minced with small scissors. About 150 mg thereof was moved to a tube. To the tube was added 100 μL of saline, and the mixture was homogenized using shake master (1000 rpm×30 minutes). Samples were prepared by the addition with quadruple volume of saline as the final volume. The concentrations of the test compound in the large intestine tissue and the plasma were measured through a quantitative analysis using liquid chromatography-mass spectrometry (LC/MS).
As the comparative example, a compound described as example 55 in US2015/0239889 (WO2014/030716) (Compound A) was used.
Symbols in the table have the following meanings. Compound A: comparative example Cmax: maximum plasma concentration of the test compound in the case of oral administration (ng/mL) AUC: area under the plasma test compound concentration-time curve (ng*min/mL) Plasma: plasma test compound concentration after 8 hours (ng/mL) Colon: concentration of the test compound in the large intestine tissue after 8 hours (ng/g) C/P: ratio of the above Colon and Plasma

[4] = Solid stability test; assay type: physicochemical; details: open condition at 40° C., 1 month; for Amount of the mass change of the compound 1: HPLC area normalization; for Crystal form change: powder X-ray diffraction; for Properties: appearance White powder
Protocol: Test Example 4: Solid Stability Test
Physicochemical stability and chemical stability for crystals of compound 1 (crystal forms I to IV) were examined.
Physicochemical stability: Each crystal was stored under open condition at 40° C. The powder X-ray diffraction of the sample was measured at the initial point and 1 month later, and the change in crystal form was confirmed. The change in properties was also observed at the same time. Chemical stability: Each crystal was stored under open condition at 40° C. The mass of the compound 1 was measured under the following HPLC measurement conditions at the initial point and 1 month later. [HPLC conditions] Detector: Ultraviolet and visible absorptiometer/wavelength: 225 nm
Column: L-column2 ODS, 3 μm, 4.6×150 mm (Chemicals Evaluation and Research Institute)
Column temperature: Constant temperature around 40° C. Flow rate: 1.0 mL/min Mobile phase A: A solution which was prepared with phosphoric acid to pH 2.3 after dissolving potassium dihydrogen phosphate in water to 20 mmol/L Mobile phase B: Acetonitrile Mobile phase ratios 0 to 30 minutes: mobile phase A/mobile phase B=81/19 30 to 50 minutes: mobile phase A/mobile phase B=81/19 to 25/75 50 to 55 minutes: mobile phase A/mobile phase B=25/75 55 to 55.01 minutes: mobile phase A/mobile phase B=25/75 to 81/19 55.01 to 75 minutes: mobile phase A/mobile phase B=81/19 Amount of injection: 5 μL Sample cooler: 4° C. Dissolution solvent: Mixed solution (mobile phase A/acetonitrile=75/25) Sample solution: Sample was dissolved in dissolution solvent and adjusted to about 1.0 mg/mL
Excluding the peaks derived from the blank, the peak areas of the compound 1 and an analogous substance were measured by automatic integration, and the mass of the compound 1 was calculated by area normalization method. Further, the amount of the mass change of the compound 1 after the storage was calculated.

SMILES	IC50 [1]	Inhibition (suppressive rate on the intestinal permeability, mean) [2]	concentration at 8 h ([3]; large intestine tissue (distal), read-out: Colon: concentration in the large intestine tissue after 8 hours)	Kp at 8 h ([3]; large intestine tissue / plasma, read-out: C/P: ratio of Colon and Plasma)	concentration at 8 h ([3]; plasma, read-out: Plasma: plasma test compound concentration after 8 hours)	Amount of the mass change of the compound 1 [4]	Crystal form change [4]	Properties [4]
COc1ccc(Cn2cnc3nc(-n4cc(C(=O)O)cn4)[nH]c(=O)c32)cc1 [Compound 1, 1-(7-(4-Methoxybenzyl)-6-oxo-6,7-dihydro-1H-purin-2-yl)-1H-pyrazole-4-carboxylic acid]	440 nM	83%	209 ng/g	> 209	< 1 ng/mL			
COc1ccc(Cn2cnc3nc(-n4cc(C(=O)O)cn4)[nH]c(=O)c32)cc1 [Crystal form I of the compound 1, 1-(7-(4-Methoxybenzyl)-6-oxo-6,7-dihydro-1H-purin-2-yl)-1H-pyrazole-4-carboxylic acid]						−0.05%	No change	no change
COc1ccc(Cn2cnc3nc(-n4cc(C(=O)O)cn4)[nH]c(=O)c32)cc1 [Crystal form II of the compound 1, 1-(7-(4-Methoxybenzyl)-6-oxo-6,7-dihydro-1H-purin-2-yl)-1H-pyrazole-4-carboxylic acid]						0.03%	No change	no change
COc1ccc(Cn2cnc3nc(-n4cc(C(=O)O)cn4)[nH]c(=O)c32)cc1 [Crystal form III of the compound 1, 1-(7-(4-Methoxybenzyl)-6-oxo-6,7-dihydro-1H-purin-2-yl)-1H-pyrazole-4-carboxylic acid]						0.00%	No change	no change
COc1ccc(Cn2cnc3nc(-n4cc(C(=O)O)cn4)[nH]c(=O)c32)cc1 [Crystal form IV of the compound 1, 1-(7-(4-Methoxybenzyl)-6-oxo-6,7-dihydro-1H-purin-2-yl)-1H-pyrazole-4-carboxylic acid]						0.00%	No change	no change
